Experimental data from patent US20170032106A1, “System and Method for Analyzing Adverse Event Data” (Astellas Pharma Europe Ltd., priority 2015, published 2017).
Where two headings read alike, the source gives them in different places.

Tests used:
[1] = set-up: species or system patients; details: human, in vivo; for burden estimate from dry mouth / overall burden estimate: 85 days
Description: The systems and methods of the present invention are now described with reference to specific examples of clinical trials and the adverse event data generated in connection therewith, and stored in a database. […] 2015]. DOI: 10.1177/1756287215589250) with a β3 adrenergic receptor agonist and an anti-muscarinic agent. General names for each drug treatment are used herein.
First described is the data analysis involved with implementation of the invention. More particularly, the application of the methodology involves the use of a clinical study database with individual data entries for TEAEs per patient per day. The presence of TEAEs may be plotted against the study day, such that if a patient reported a TEAE from Days 3 to 5, this TEAE was considered present on Days 3, 4 and 5. Also, if an end date was not present in the database, or a TEAE was ongoing, the last study day of the patient was taken as the end day of the TEAE. […] The addition of coloring that corresponds with TEAE severity allows easy discrimination of TEAEs of differing severity in the graph.
In order to visually represent the safety/TEAE burden experienced by a patient, varied weighting may be applied to TEAE severity in each arm in a consistent manner. The graph may, therefore, display the number of weighted TEAEs per day. For purposes of example, in the graphs described herein, TEAEs that were mild, moderate, severe, life threatening/disabling and related to death were weighted to represent 1×, 2×, 3×, 4× and 5×TEAEs per event per day, respectively. Further, the investigator may indicate the seriousness of the TEAE.
An area under the curve (AUC) analysis can be performed in conjunction with the burden of therapy methodology to quantitatively compare potential differences in mean events per day between study arms. This can be performed in conjunction with weighting of events if required. An AUC analysis may be useful in studies that have a similar presence of events in each arm, as an estimate of the mean weighted events per day for each arm can be compared using statistical tools.
The AUC for each individual subject can also be calculated. The AUC represents the total burden that an individual subject experienced during the trial. The AUC is the sum of the burden, for all burdens of an individual subject. Thus, the AUC of subject i is burdeni=Σj=1^t^i burdenij, where ti is the total number of study days of subject i.
The AUC can be used in an analysis of covariance (ANCOVA) as a response variable and the impact of different covariates and factors on the AUC can be investigated. The obvious factor is treatment, but one can include medication history, age, gender or BMI as […] in the ANCOVA analysis.
To analyze the profiles with an ANCOVA, the AUC for dry mouth of each subject was derived. The AUC was then used as the dependent variable in the model. […] It is likely that a negative past experience with anti-muscarinics could influence the recording of a specific adverse event like dry-mouth. In the statistical (ANCOVA) model, prior anti-muscarinics dissatisfaction was added next to treatment as explanatory variable. […] Prior anti-muscarinic dissatisfaction had also a low p-value (p=0.007), meaning that subjects with a negative experience using anti muscarinics also reported more dry mouths. In this study, dry mouth was reported by 29 patients (3.1%) in the adrenergic agonist group and 54 patients (5.8%) in the antimuscarinic group (Batista et al., 2015). An analysis of patients who reported dry mouth was performed to investigate whether there was a difference between arms and approximately 1.5-2.0% of patients reported dry mouth in the antimuscarinic group from Days 17-85 (FIGS. 3B and 4B).

[2] = cited from earlier work
[3] = overactive bladder study, whole study

SMILES	patients reporting dry mouth per day [1]	difference in the proportion of patients with TEAEs ([1]; 10 day)	difference in the proportion of patients with TEAEs ([1]; 85 day)	burden estimate from dry mouth [1]	overall burden estimate [1]	number of patients reporting dry mouth ([2]; human, in vivo)	patients reporting dry mouth (%) ([2]; human, in vivo)	patients with TEAEs (%) [2, 3]	total number of patients with TEAEs [2, 3]
O=C(O[C@H]1CN2CCC1CC2)N1CCc2ccccc2[C@@H]1c1ccccc1 [antimuscarinic agent, solifenacin]	1.5-2.0%	0.1%	5%	5.7	19.6				
Nc1nc(CC(=O)Nc2ccc(CCNC[C@H](O)c3ccccc3)cc2)cs1 [β3 adrenergic receptor agonist, mirabegron]				2.9	15.1	29 patients	3.1%	29.3%	274
